Results on twelve compounds are retold here after ChEMBL document CHEMBL1122404, “Khellin analogues. 1. General topological requirements for lipid-altering activity in furochromones” (1983).

The nature of assay [1]: Serum high density lipoprotein (HDL) cholesterol alteration by the compound at 50 mg/kg/day dose in normocholesterolemic Male S.E.A. Japanese quail with 5-7 weeks of age. It counts as functional, Coturnix.
Assay [2] can be described thus: Serum lipoprotein (VLDL+LDL) cholesterol alteration by the compound at 50 mg/kg/day dose in normocholesterolemic Male S.E.A. Japanese quail with 5-7 weeks of age. It counts as functional, Coturnix.
The nature of assay [3]: Total Serum lipoprotein cholesterol alteration by the compound at 50 mg/kg/day dose in normocholesterolemic Male S.E.A. Japanese quail with 5-7 weeks of age.

Take `COc1c2occc2c(OC)c2c(=O)cc(CSc3ccccc3)oc12`: the T/C in assay [1] is on record as 1.33; in assay [2], 0.43; in assay [3], 1.09.
Turning to `COc1c2occc2c(OC)c2c(=O)ccoc12`, the T/C in assay [1] is 1.36; in assay [2] it was 0.42; in assay [3], 1.15.
As to `COc1c2occc2c(OC)c2c(=O)cc(CN(C)C)oc12`, the T/C in assay [1] came out at 0.92; in assay [2], 0.37; in assay [3], 0.82.
In the same order, the values of `COc1c2occc2cc2c(=O)cc(C)oc12` are 1.19, 0.77 and 1.09.
Turning to `COc1c2c(c(OC)c3occc13)OC(C)CC2=O` (stereo unspecified), the T/C in assay [1] is 1.45; in assay [2], 0.55; in assay [3], 1.24.
Consider `COc1c2occc2c(OC)c2c(=O)cc(C)oc12` [KHELLIN], for which the T/C worked out at 1.46 in assay [1], 0.37 in assay [2] and 1.21 in assay [3].
In the same order, the values of `COc1c2ccoc2cc2oc(C)cc(=O)c12` [VISNAGIN] are 1.42, 0.51 and 1.21.
In the case of `Cc1cc(=O)c2cc3ccoc3cc2o1`, the results for the T/C in assay [1], in assay [2] and in assay [3] were 1.05, 0.84 and 1.01, respectively.
Consider `COc1c2occc2c(OC)c2c(=O)cc(C(C)C)oc12`, for which the T/C in assay [1] came out at 1.4; in assay [2], 0.49; in assay [3], 1.17.
`COc1c2occc2c(OC)c2c(=O)cc(CSC)oc12` [TIMEFURONE]: the T/C in assay [1] amounted to 1.68; in assay [2], 0.47; in assay [3] it was 1.36.
As for `COc1c2c(c(OC)c3c(=O)cc(C)oc13)CCO2`, the T/C in assay [1] is recorded as 1.17; in assay [2] it was 0.74; in assay [3], 1.07.
For the compound `COCc1cc(=O)c2c(OC)c3ccoc3c(OC)c2o1`, the T/C in assay [1] came out at 1.63; in assay [2], 0.57; in assay [3] it was 1.35.
